{
  "source": "patent US20040122209A1",
  "about": "“Products for regulating the degradation of collagen and methods for identifying same” (Shriners Hospital For Children, priority 2002, published 2004)",
  "key": {"[1]": {"system": "adult bovine articular cartilage", "assay": "RT-PCR of hypertrophy and degradation genes in bovine articular cartilage explant culture", "assay_type": "cell-based", "procedure": "Total RNA was isolated from chondrocytes or cartilage explants by the guanidine isothiocyanate procedure according to Chomczynski and Sacchi (Chomczynski, P. et al., Anal. Biochem. 162:156-9 (1987)) with some modifications. Briefly, chondrocytes (1-2×10^6 cells) or cartilage tissue (200-300 mg) were solubilized in solution D (4 M guanidine isothiocyanate, 20 mM sodium acetate/pH 5.2, 0.1 M 2-mercaptoethanol and 0.5% N-lauroylsarcosine). One volume of isopropanol was added to the mixture and all proteins and nucleic acids were precipitated at −20° C. overnight. […] The total RNA pellet was resuspended in diethyl pyrocarbonate-treated (DEPC) water and the amount of total RNA was measured by reading optical density at 260 nm. […]\nOne microliter of reverse transcribed total RNA was incubated with 2.5 U of AmpliTaq™ DNA polymerase (Perkin Elmer, Branchburg, N.J.) in 50 mM KCl, 1.5 mM MgCl2, 10 mM Tris-HCl, pH 8.3, 200 μM dNTP mix and 0.5 μmol each of oligonucleotide primers in 50 μl reaction mixture. […] The digital images of the gel were analyzed using NIH 1.60 imaging software to evaluate the pixel intensity of the band of the PCR products. […] The band intensities were determined to be below saturation. […]\nMMP-13 expression was maximal by 12 days. Gene expression was determined by RT-PCR analyses of mRNA in the manner used to detect expression of MMPs and cytokines described elsewhere. […]"}, "[2]": {"system": "ERK1/2", "assay": "Western immunoblot for phosphorylated ERK1/2 in human chondrocytes", "assay_type": "cell-based", "procedure": "To detect activation of MAP kinases (ERK1/2, p38 MAPK, and JNK1/2), first-passaged chondrocytes plated onto 10-cm culture dishes were incubated with CB12-II (SP), USP, TNF-α, native human type II collagen, human fibronectin, and antibodies to α2β1 and α5β1 for 5-60 min. In some experiments, chondrocytes were precultured with U0126 (inhibitor of phosphorylation of MEK1/2, up-stream kinase molecule of ERK1/2) at 1 μM for 1 h, SB203580 (inhibitor of phosphorylation of p38 MAPK) at 1 μM for 1 h, Herbimycin A (tyrosine kinase inhibitor) at 1 μg/ml for overnight, Wortmannin (PI3 kinase inhibitor) at 100 nM for 1 h, and Cytochalasin D (focal adhesion inhibitor) at 3 μM for 30 or 60 min before adding peptides.\nAfter a variable but designated incubation time, chondrocytes were washed twice with ice cold PBS and lysed in RIPA buffer (10 mM Tris/HCl, pH 7.4, 0.1% SDS, 1% NP-40, 0.1% sodium deoxycholate, 150 mM NaCl, 1 mM EDTA) containing freshly added proteinase and phosphatase inhibitors (1 mM PMSF, 10 μg/ml leupeptin, 1 μg/ml aprotinin, 1 mM Na3VO4, 1 mM NaF). Cell lysate was centrifuged and supernatant was collected. Protein concentration was determined using Bradford's method. Equal amounts of protein were separated on 10% SDS-polyacrylamide gels under reducing conditions and were electrotransferred to a nitrocellulose membrane (Bio-Rad). To block nonspecific binding, the membranes were incubated in PBS containing 5% non-fat milk overnight at 4° C. The membranes were then probed with rabbit antibodies against phosphorylated ERK1/2, p38, and JNK1/2 (New England BioLabs). Antibodies were diluted 1:1000 in PBS containing 0.5% non-fat milk and reacted with the membrane for 1 h at room temperature. Blots were washed with PBS containing 0.1% Tween-20 three times, and incubated for 1 h at room temperature with horseradish peroxidase (HRP)-conjugated goat anti-rabbit IgG (New England BioLabs) diluted 1:2000 with PBS-0.1% Tween 20 for ECL system (Amersham). Then, the membranes were washed with PBS-Tween, and the membranes were detected with the addition of a 1:1 dilution of the ECL detection reagents (Amersham) 1 and 2 for 1 min. The solution was removed, and the membranes were wrapped in plastic wrap and exposed to film for various amounts of time.\nFirst-passaged confluent human chondrocytes were treated with CB12-II (SP) (10 μM), USP (10 μM), anti-α2β1and α5β1 antibodies, anti-integrin α2β1 blocking antibody, and IL-1β or TNF-α. Cell lysates were immunoblotted using antibody that detects phosphorylated p-ERK1I/2 or p-MEK. In some experiments, U0126 at 10 μM, a specific inhibitor of an upstream molecule, MEK1/2, that activates ERK1/2, and SB203580 at 10 μM, that inhibits p38 MAPK activity, were added to the culture 1 h before peptides, antibodies, and cytokines. Herbimycin A, cytochalasin D, and wortmannin were also used as inhibitors."}},
  "data": [
    {"sequence": "ERGPPGPQGARGFPGTPGLPGVK [CB12-II]", "values": [
      {"measurement": "time at which MMP-13 expression was maximal", "setting": "[1]", "value": "≤ 12", "unit": "days"},
      {"measurement": "expression of genes characteristic of chondrocyte hypertrophy (COLX, MMP-9, TGF-B1, IHH, MMP-13, CBFA1, SOX 9, bFGF, pTHrP, caspase-3, MT1-MMP, IL-1B, MMP-1)", "setting": "[1]; induction within a 24-48 hr period", "value": "rapid induction"},
      {"measurement": "phosphorylation of ERK1/2 compared with USP at the same concentration", "setting": "[2]; 10 μM", "value": "more than USP"},
      {"measurement": "time of maximum ERK1/2 phosphorylation", "setting": "[2]; 10 μM", "value": "15 to 30", "unit": "min"},
      {"measurement": "time to phosphorylation of ERK1/2 after adding peptide", "setting": "[2]; 10 μM", "value": "≤ 5", "unit": "min"},
      {"measurement": "phosphorylation of ERK 1/2, dose dependence", "setting": "[2]; 1, 10 and 50 μM, 15 min after addition", "value": "dose-dependently"}
    ]}
  ]
}
